Structures are written as SMILES. pIC50: −log10 of the molar value. Structures can show the parent of a compound that is named as a salt.

For orientation: DC50 means the concentration at which degradation of the target reaches its halfway point. As usually defined, the Dmax is the largest share of the target that was removed. As usually defined, the pIC50 is the IC50 on a negative log10 scale, so that one unit is a factor of ten.

T1 sequence (Q9UKS7 whole entry): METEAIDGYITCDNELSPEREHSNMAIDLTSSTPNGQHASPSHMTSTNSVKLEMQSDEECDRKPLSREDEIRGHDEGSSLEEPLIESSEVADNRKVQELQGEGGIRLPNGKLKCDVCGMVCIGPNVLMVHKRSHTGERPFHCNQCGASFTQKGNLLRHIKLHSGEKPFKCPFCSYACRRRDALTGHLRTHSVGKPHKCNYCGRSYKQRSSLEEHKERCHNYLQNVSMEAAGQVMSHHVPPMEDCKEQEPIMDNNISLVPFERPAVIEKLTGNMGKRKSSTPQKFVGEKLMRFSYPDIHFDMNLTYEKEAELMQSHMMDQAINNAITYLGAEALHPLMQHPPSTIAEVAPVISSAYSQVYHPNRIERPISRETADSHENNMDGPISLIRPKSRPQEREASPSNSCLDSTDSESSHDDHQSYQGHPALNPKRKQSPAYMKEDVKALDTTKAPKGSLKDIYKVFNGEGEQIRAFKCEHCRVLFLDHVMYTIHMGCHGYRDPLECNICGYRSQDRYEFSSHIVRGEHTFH
T1 sequence (Q96SW2 whole entry): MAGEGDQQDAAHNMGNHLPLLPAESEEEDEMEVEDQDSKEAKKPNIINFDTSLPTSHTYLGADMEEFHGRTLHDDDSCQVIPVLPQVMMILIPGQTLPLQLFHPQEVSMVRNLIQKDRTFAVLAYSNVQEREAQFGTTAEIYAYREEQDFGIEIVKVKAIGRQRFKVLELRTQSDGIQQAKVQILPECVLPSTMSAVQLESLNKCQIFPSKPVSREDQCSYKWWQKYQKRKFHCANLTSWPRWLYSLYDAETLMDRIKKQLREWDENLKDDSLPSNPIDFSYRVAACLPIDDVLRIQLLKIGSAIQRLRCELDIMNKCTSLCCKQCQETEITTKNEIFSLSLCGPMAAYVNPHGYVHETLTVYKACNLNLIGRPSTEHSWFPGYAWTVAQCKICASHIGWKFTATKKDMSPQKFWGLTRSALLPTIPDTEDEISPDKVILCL
T1 sequence (Q16531 2-1140 partner limits assumed): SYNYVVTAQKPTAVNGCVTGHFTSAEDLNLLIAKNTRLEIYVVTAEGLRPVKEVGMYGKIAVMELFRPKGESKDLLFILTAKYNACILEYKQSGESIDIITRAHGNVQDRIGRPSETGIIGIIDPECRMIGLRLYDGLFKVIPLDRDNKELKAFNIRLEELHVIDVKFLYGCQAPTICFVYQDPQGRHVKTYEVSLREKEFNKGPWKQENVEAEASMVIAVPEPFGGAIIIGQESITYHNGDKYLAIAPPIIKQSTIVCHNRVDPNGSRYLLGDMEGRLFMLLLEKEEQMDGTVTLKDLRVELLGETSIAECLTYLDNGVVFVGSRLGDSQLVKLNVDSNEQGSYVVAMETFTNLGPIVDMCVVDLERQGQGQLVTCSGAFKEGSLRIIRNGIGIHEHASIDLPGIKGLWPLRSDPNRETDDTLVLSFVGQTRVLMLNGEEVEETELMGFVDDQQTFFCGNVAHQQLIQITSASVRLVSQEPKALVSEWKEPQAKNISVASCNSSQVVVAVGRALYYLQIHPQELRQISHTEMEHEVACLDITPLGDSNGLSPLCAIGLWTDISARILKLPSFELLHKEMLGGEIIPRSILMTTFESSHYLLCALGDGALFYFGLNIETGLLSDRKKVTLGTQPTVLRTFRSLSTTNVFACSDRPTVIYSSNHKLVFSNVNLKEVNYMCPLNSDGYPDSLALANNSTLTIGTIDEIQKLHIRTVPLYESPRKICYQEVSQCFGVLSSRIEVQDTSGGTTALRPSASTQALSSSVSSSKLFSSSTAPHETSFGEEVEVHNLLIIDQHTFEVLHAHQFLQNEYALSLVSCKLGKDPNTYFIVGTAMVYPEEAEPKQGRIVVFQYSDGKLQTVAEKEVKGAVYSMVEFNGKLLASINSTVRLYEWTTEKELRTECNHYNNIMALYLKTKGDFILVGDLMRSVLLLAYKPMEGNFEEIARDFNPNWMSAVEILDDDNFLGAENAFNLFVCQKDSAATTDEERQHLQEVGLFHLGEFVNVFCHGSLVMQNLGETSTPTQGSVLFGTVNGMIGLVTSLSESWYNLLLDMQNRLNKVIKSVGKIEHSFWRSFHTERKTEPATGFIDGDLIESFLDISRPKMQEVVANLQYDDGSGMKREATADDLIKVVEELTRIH

One experiment has as its target T1, IKZF2 (Homo sapiens, UniProt Q96SW2+Q9UKS7).
T1 construct: host or cells: Jurkat-IKZF2-HiBiT
In words: IKZF2 HiBiT degradation assay (Jurkat-IKZF2-HiBiT). Type of experiment: cell-based. As to conditions: read-out: IKZF2 degradation DC50; Jurkat-IKZF2-HiBiT cells, 24 hours. The protocol: Degradation of IKZF2 protein was determined by IKZF2 HiBiT assay using the Jurkat-IKZF2-HiBiT (Promega) cell line. […] Compounds were serially diluted in culture medium, and 20 μl of the diluted compounds were added to the appropriate wells of the plate. After the addition of compounds, the cells were incubated at 37° C. in an atmosphere of 5% CO2 for 24 hours. At the end of treatment, 40 ul of Nano-Glo HiBiT Lytic Detection Reagent (Promega) was added to each well, and then the plates were incubated at room temperature for 10-20 minutes. The luminescent signal was measured using a CALRIOstar plate reader (BMG Labtech). The readings were normalized to the DMSO-treated cells and the IC50 was calculated by nonlinear regression (four parameters sigmoid fitted with variable slope, least squares fit, and no constraint) analysis using the GraphPad Prism 8 software.
In general terms: With HiBiT, luminescence reflects the tagged protein that the partner subunit can reach.
Consider `CC(=O)Nc1cccc(CN2CCN3c4cc5c(cc4OC[C@@H]3C2)C(=O)N([C@H]2CCC(=O)NC2=O)C5)c1` [Compound C26, N-(3-(((S)-9-((S)-2,6-dioxopiperidin-3-yl)-8-oxo-1,2,4a,5,9,10-hexahydro-8H-pyrazino[1′,2′:4,5][1,4]oxazino[2,3-f]isoindol-3(4H)-yl)methyl)phenyl)acetamide], for which the DC50 was over 1000 nM. As for `O=C1CCC(N2Cc3cc4c(cc3C2=O)OC[C@@H]2CN(CC3CCN(c5ccccc5)CC3)CCN42)C(=O)N1` (stereo partly drawn) [Compound C7, 3-((S)-8-oxo-3-((1-phenylpiperidin-4-yl)methyl)-1,2,3,4,4a,5,8,10-octahydro-9H-pyrazino[1′,2′:4,5][1,4]oxazino[2,3-f]isoindol-9-yl)piperidine-2,6-dione], the 50% degradation concentration (DC50) is 320 nM. As to `O=C1CC[C@H](N2Cc3cc4c(cc3C2=O)OC[C@@H]2CN(CC3CC5CCC3C5)CCN42)C(=O)N1` (stereo partly drawn) [Compound C36, (3S)-3-((4aS)-3-(bicyclo[2.2.1]heptan-2-ylmethyl)-8-oxo-1,2,3,4,4a,5,8,10-octahydro-9H-pyrazino[1′,2′:4,5][1,4]oxazino[2,3-f]isoindol-9-yl)piperidine-2,6-dione], the DC50 was determined as 376 nM.

For `COc1ccc(C(=O)Nc2cccc(CN3CCN4c5cc6c(cc5OC[C@@H]4C3)C(=O)N([C@H]3CCC(=O)NC3=O)C6)c2)cc1` [Compound C21, N-(3-(((S)-9-((S)-2,6-dioxopiperidin-3-yl)-8-oxo-1,2,4a,5,9,10-hexahydro-8H-pyrazino[1′,2′:4,5][1,4]oxazino[2,3-f]isoindol-3(4H)-yl)methyl)phenyl)-4-methoxybenzamide], the half-maximal degradation concentration (DC50) is 9 nM. `COc1ccc(C(=O)N(C)c2cccc(CN3CCN4c5cc6c(cc5OC[C@@H]4C3)C(=O)N([C@H]3CCC(=O)NC3=O)C6)c2)cc1` [Compound C27, N-(3-(((S)-9-((S)-2,6-dioxopiperidin-3-yl)-8-oxo-1,2,4a,5,9,10-hexahydro-8H-pyrazino[1′,2′:4,5][1,4]oxazino[2,3-f]isoindol-3(4H)-yl)methyl)phenyl)-4-methoxy-N-methylbenzamide]: the DC50 is over 10000 nM.

Staying with this experiment, now noted: read-out: IKZF2 degradation Dmax (%).
On to `CC(=O)Nc1cccc(CN2CCN3c4cc5c(cc4OC[C@@H]3C2)C(=O)N([C@H]2CCC(=O)NC2=O)C5)c1` [Compound C26, N-(3-(((S)-9-((S)-2,6-dioxopiperidin-3-yl)-8-oxo-1,2,4a,5,9,10-hexahydro-8H-pyrazino[1′,2′:4,5][1,4]oxazino[2,3-f]isoindol-3(4H)-yl)methyl)phenyl)acetamide], for which the Dmax came to 33%. Still for that read-out and setting: with `O=C1CCC(N2Cc3cc4c(cc3C2=O)OC[C@@H]2CN(CC3CCN(c5ccccc5)CC3)CCN42)C(=O)N1` (stereo partly drawn) [Compound C7, 3-((S)-8-oxo-3-((1-phenylpiperidin-4-yl)methyl)-1,2,3,4,4a,5,8,10-octahydro-9H-pyrazino[1′,2′:4,5][1,4]oxazino[2,3-f]isoindol-9-yl)piperidine-2,6-dione] the figure was 50%; with `O=C1CC[C@H](N2Cc3cc4c(cc3C2=O)OC[C@@H]2CN(CC3CC5CCC3C5)CCN42)C(=O)N1` (stereo partly drawn) [Compound C36, (3S)-3-((4aS)-3-(bicyclo[2.2.1]heptan-2-ylmethyl)-8-oxo-1,2,3,4,4a,5,8,10-octahydro-9H-pyrazino[1′,2′:4,5][1,4]oxazino[2,3-f]isoindol-9-yl)piperidine-2,6-dione], 68%; with `COc1ccc(C(=O)Nc2cccc(CN3CCN4c5cc6c(cc5OC[C@@H]4C3)C(=O)N([C@H]3CCC(=O)NC3=O)C6)c2)cc1` [Compound C21, N-(3-(((S)-9-((S)-2,6-dioxopiperidin-3-yl)-8-oxo-1,2,4a,5,9,10-hexahydro-8H-pyrazino[1′,2′:4,5][1,4]oxazino[2,3-f]isoindol-3(4H)-yl)methyl)phenyl)-4-methoxybenzamide], 85%. Still for that read-out and setting: next, `COc1ccc(C(=O)N(C)c2cccc(CN3CCN4c5cc6c(cc5OC[C@@H]4C3)C(=O)N([C@H]3CCC(=O)NC3=O)C6)c2)cc1` [Compound C27, N-(3-(((S)-9-((S)-2,6-dioxopiperidin-3-yl)-8-oxo-1,2,4a,5,9,10-hexahydro-8H-pyrazino[1′,2′:4,5][1,4]oxazino[2,3-f]isoindol-3(4H)-yl)methyl)phenyl)-4-methoxy-N-methylbenzamide]: 21%.

In a further experiment the target is wild-type human CRBN protein (Homo sapiens, UniProt Q96SW2). As to the kind of experiment: biochemical.
Chain of wild-type human CRBN protein (Q96SW2 whole entry): as the sequence (Q96SW2 whole entry) above
Conditions: not given
In the case of `O=C1CC[C@H](NC(=O)c2ccc3c(c2)OC[C@H]2CNCCN32)C(=O)N1` [Compound B22, (R)—N—((S)-2,6-dioxopiperidin-3-yl)-1,2,3,4,4a,5-hexahydrobenzo[b]pyrazino[1,2-d][1,4]oxazine-8-carboxamide], the negative-log IC50 (pIC50) is 4.64. Take `CC(=O)N1CCN2c3ccc4c(c3OC[C@@H]2C1)CN([C@H]1CCC(=O)NC1=O)C4=O` [Compound C10, (S)-3-((S)-7-acetyl-1-oxo-1,3,5,5a,6,7,8,9-octahydro-2H-pyrazino[1′,2′:4,5][1,4]oxazino[2,3-e]isoindol-2-yl)piperidine-2,6-dione]: the negative logarithm of the IC50 (pIC50) was 6.70.

`O=C1CC[C@H](NC(=O)c2ccc3c(c2)OC[C@@H]2CNCCN32)C(=O)N1` [Compound B23, (S)—N—((S)-2,6-dioxopiperidin-3-yl)-1,2,3,4,4a,5-hexahydrobenzo[b]pyrazino[1,2-d][1,4]oxazine-8-carboxamide] gave a pIC50 of 4.60. `O=C1CC[C@H](N2Cc3c(ccc4c3OC[C@@H]3CN(Cc5ccc(F)cc5Cl)CCN43)C2=O)C(=O)N1` [Compound C13, (S)-3-((S)-7-(2-chloro-4-fluorobenzyl)-1-oxo-1,3,5,5a,6,7,8,9-octahydro-2H-pyrazino[1′,2′:4,5][1,4]oxazino[2,3-e]isoindol-2-yl)piperidine-2,6-dione] gave a pIC50 of 7.05. The molecule `O=C1CCC(N2Cc3cc4c(cc3C2=O)OC[C@H]2CNCCN42)C(=O)N1` (stereo partly drawn) [Compound B6, 3-((R)-8-oxo-1,2,3,4,4a,5,8,10-octahydro-9H-pyrazino[1′,2′:4,5][1,4]oxazino[2,3-f]isoindol-9-yl)piperidine-2,6-dione trifluoroacetate salt] had a pIC50 of 5.51.

`CN1C[C@@H]2CNCCN2c2cc3c(cc21)C(=O)N(C1CCC(=O)NC1=O)C3` (stereo partly drawn) [Compound B7, 3-((S)-6-methyl-8-oxo-2,3,4,4a,5,6,8,10-octahydropyrazino[1,2-a]pyrrolo[3,4-g]quinoxalin-9(1H)-yl)piperidine-2,6-dione trifluoroacetate salt] had a negative-log IC50 (pIC50) of 6.13. Still for that read-out and setting: next, `CN1CCN2c3ccc4c(c3N(C)C[C@@H]2C1)CN(C1CCC(=O)NC1=O)C4=O` (stereo partly drawn) [Compound B12, 3-((S)-4,7-dimethyl-1-oxo-3,4,5,5a,6,7,8,9-octahydropyrazino[1,2-a]pyrrolo[3,4-f]quinoxalin-2(1H)-yl)piperidine-2,6-dione]: 6.24; `CC(=O)N1CCN2c3ccc4c(c3OC[C@H]2C1)CN([C@H]1CCC(=O)NC1=O)C4=O` [Compound C9, (S)-3-((R)-7-acetyl-1-oxo-1,3,5,5a,6,7,8,9-octahydro-2H-pyrazino[1′,2′:4,5][1,4]oxazino[2,3-e]isoindol-2-yl)piperidine-2,6-dione]: 6.74. The molecule `N[C@H]1C[C@H]2COc3cc4c(cc3N2C1)CN([C@H]1CCC(=O)NC1=O)C4=O` [Compound B17, (S)-3-((2S,3aS)-2-amino-7-oxo-2,3,3a,4,7,9-hexahydro-1H,8H-pyrrolo[1′,2′:4,5][1,4]oxazino[2,3-f]isoindol-8-yl)piperidine-2,6-dione] gave a negative logarithm of the IC50 (pIC50) of 6.89.

With `O=C1CC[C@@H](N2Cc3cc4c(cc3C2=O)OC[C@@H]2CNCCN42)C(=O)N1` [Compound B2, (R)-3-((S)-8-oxo-1,2,3,4,4a,5,8,10-octahydro-9H-pyrazino[1′,2′:4,5][1,4]oxazino[2,3-f]isoindol-9-yl)piperidine-2,6-dione], the pIC50 is 5.28. Turning to `O=C1CCC(N2Cc3c(ccc4c3N3CCNC[C@H]3CO4)C2=O)C(=O)N1` (stereo in doubt) [Compound B16, (R)-3-((S)-3-oxo-1,3,7,7a,8,9,10,11-octahydro-2H-pyrazino[1′,2′:4,5][1,4]oxazino[3,2-e]isoindol-2-yl)piperidine-2,6-dione], the pIC50 is 5.85. `CC(C)(C)OC(=O)N1CCN2c3cc4c(cc3OC[C@@H]2C1)C(=O)N([C@H]1CCC(=O)NC1=O)C4` [Compound B3, (S)-tert-butyl (4aS)-9-(2,6-dioxopiperidin-3-yl)-8-oxo-1,2,4a,5,9,10-hexahydro-8H-pyrazino[1′,2′:4,5][1,4]oxazino[2,3-f]isoindole-3(4H)-carboxylate] gave a negative logarithm of the IC50 (pIC50) of 5.77. `O=C1CCC(N2Cc3cc4c(cc3C2=O)OC[C@@H]2CNCCN42)C(=O)N1` (stereo partly drawn) [Compound B1, 3-((S)-8-oxo-1,2,3,4,4a,5,8,10-octahydro-9H-pyrazino[1′,2′:4,5][1,4]oxazino[2,3-f]isoindol-9-yl)piperidine-2,6-dione hydrochloride salt] gave a pIC50 of 5.68.

`O=C1CC[C@H](NC(=O)c2ccc3c(n2)OC[C@H]2CNCCN32)C(=O)N1` [Compound B19, (R)-N-((S)-2,6-dioxopiperidin-3-yl)-1,2,3,4,4a,5-hexahydropyrazino[1,2-d]pyrido [2,3-b][1,4]oxazine-8-carboxamide] gave a pIC50 of 4.52.

Consider `CN1CCN2c3cc4c(cc3N(C)C[C@@H]2C1)C(=O)N(C1CCC(=O)NC1=O)C4` (stereo partly drawn) [Compound B8, 3-((S)-3,6-dimethyl-8-oxo-2,3,4,4a,5,6,8,10-octahydropyrazino[1,2-a]pyrrolo[3,4-g]quinoxalin-9(1H)-yl)piperidine-2,6-dione], for which the negative-log IC50 (pIC50) was 6.03.

For `O=C1CC[C@H](N2Cc3c(ccc4c3OC[C@@H]3CN(Cc5ccc(F)c(F)c5)CCN43)C2=O)C(=O)N1` [Compound C12, (S)-3-((S)-7-(3,4-difluorobenzyl)-1-oxo-1,3,5,5a,6,7,8,9-octahydro-2H-pyrazino[1′,2′:4,5][1,4]oxazino[2,3-e]isoindol-2-yl)piperidine-2,6-dione], the pIC50 is 6.62. `N[C@H]1C[C@H]2COc3cc4c(cc3N2C1)C(=O)N(C1CCC(=O)NC1=O)C4=O` (stereo partly shown) [Compound B18] showed a negative-log IC50 (pIC50) of 6.66.

In the case of `CC(C)(C)OC(=O)N1CCN2c3cc4c(cc3OC[C@@H]2C1)C(=O)N([C@@H]1CCC(=O)NC1=O)C4` [Compound B4, (R)-tert-butyl (4aS)-9-(2,6-dioxopiperidin-3-yl)-8-oxo-1,2,4a,5,9,10-hexahydro-8H-pyrazino[1′,2′:4,5][1,4]oxazino[2,3-f]isoindole-3(4H)-carboxylate], the pIC50 is 5.46.

For the molecule `O=C1CC[C@H](N2Cc3c(ccc4c3OC[C@@H]3CN(Cc5ccc(C(F)F)cc5)CCN43)C2=O)C(=O)N1` [Compound C11, (S)-3-((S)-7-(4-(difluoromethyl)benzyl)-1-oxo-1,3,5,5a,6,7,8,9-octahydro-2H-pyrazino[1′,2′:4,5][1,4]oxazino[2,3-e]isoindol-2-yl)piperidine-2,6-dione], the pIC50 was 7.05. Still for that read-out and setting: with `CN1CCN2c3cc4c(cc3OC[C@@H]2C1)C(=O)N(C1CCC(=O)NC1=O)C4` (stereo partly drawn) [Compound B5, 3-((S)-3-methyl-8-oxo-1,2,3,4,4a,5,8,10-octahydro-9H-pyrazino[1′,2′:4,5][1,4]oxazino[2,3-f]isoindol-9-yl)piperidine-2,6-dione] the figure was 6.04. The same measure, in the same setting: next, `CCN1CCN2c3ccc4c(c3OC[C@H]2C1)CN([C@H]1CCC(=O)NC1=O)C4=O` [Compound C8, (S)-3-((R)-7-ethyl-1-oxo-1,3,5,5a,6,7,8,9-octahydro-2H-pyrazino[1′,2′:4,5][1,4]oxazino[2,3-e]isoindol-2-yl)piperidine-2,6-dione]: 6.33.

The values are drawn from patent US20260265271A1, “Cereblon Ligands and Uses Thereof” (REGENTS OF THE UNIVERSITY OF MICHIGAN, priority 2022, published 2026).
